Tests used:
Assay in all cases: cells
[1] = test system: KYSE-510; format: functional, cell-based; settings: Homo sapiens;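 further: cell viability readout used to measure how strongly growth of the cell line is suppressed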
Description: SANGER: Inhibition of human KYSE-510 cell growth in a cell viability assay.

[2] = test system: KYSE-70 cell line; format: functional, cell-based; settings: Homo sapiens;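 further: cell viability assay read-out, with IC50 expressing suppression of KYSE-70 cell growth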
Description: SANGER: Inhibition of human KYSE-70 cell growth in a cell viability assay.

[3] = test system: LCLC-103H cell line; format: functional, cell-based; settings: Homo sapiens
Description: SANGER: Inhibition of human LCLC-103H cell growth in a cell viability assay.

[4] = test system: KP-4; format: functional, cell-based; settings: Homo sapiens;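 further: human KP-4 cells, with growth inhibition read out through a cell viability assay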
Description: SANGER: Inhibition of human KP-4 cell growth in a cell viability assay.

[5] = test system: NB14; format: functional, cell-based, Homo sapiens; settings: Homo sapiens, NB14;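 further: growth inhibition of NB14 cells measured with a cell viability assay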
Description: SANGER: Inhibition of human NB14 cell growth in a cell viability assay.

[6] = test system: HTC-C3; format: functional, cell-based; settings: Homo sapiens;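 further: inhibition of cell growth, read out with a cell viability assay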
Description: SANGER: Inhibition of human HTC-C3 cell growth in a cell viability assay.

[7] = test system: CAL-120; format: functional, cell-based; settings: Homo sapiens;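 further: cell growth inhibition, read out as cell viability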
Description: SANGER: Inhibition of human CAL-120 cell growth in a cell viability assay.

[8] = test system: CAMA-1; format: functional, cell-based; settings: Homo sapiens;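 further: growth inhibition of CAMA-1 cells, read out with a cell viability assay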
Description: SANGER: Inhibition of human CAMA-1 cell growth in a cell viability assay.

[9] = test system: CAL-62; format: functional, cell-based; settings: Homo sapiens;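 further: growth inhibition of CAL-62 cells, read out with a cell viability assay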
Description: SANGER: Inhibition of human CAL-62 cell growth in a cell viability assay.

[10] = test system: KU-19-19; format: functional, cell-based; settings: Homo sapiens
Description: SANGER: Inhibition of human KU-19-19 cell growth in a cell viability assay.

[11] = test system: TCC-SUP; format: functional, cell-based; settings: Homo sapiens;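 further: growth inhibition of TCC-SUP cells, read out with a cell viability assay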
Description: SANGER: Inhibition of human TCCSUP cell growth in a cell viability assay.

[12] = test system: A-375; format: functional, cell-based; settings: Homo sapiens;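 further: growth inhibition of A375 cells, read out with a cell viability assay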
Description: SANGER: Inhibition of human A375 cell growth in a cell viability assay.

[13] = test system: NCI-H2170; format: functional, cell-based; settings: Homo sapiens;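 further: cell viability assay measuring growth inhibition of human NCI-H2170 cancer cells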
Description: SANGER: Inhibition of human NCI-H2170 cell growth in a cell viability assay.

[14] = test system: NUGC-3; format: functional, cell-based; settings: Homo sapiens;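 further: growth inhibition of human NUGC-3 cells, read out with a cell viability assay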
Description: SANGER: Inhibition of human NUGC-3 cell growth in a cell viability assay.

[15] = test system: SW1573; format: functional, cell-based; settings: Homo sapiens;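 further: growth inhibition of SW1573 cells, read out with a cell viability assay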
Description: SANGER: Inhibition of human SW1573 cell growth in a cell viability assay.

[16] = test system: EFM-19; format: functional, cell-based; settings: Homo sapiens;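 further: growth inhibition of human EFM-19 cells, measured in a cell viability assay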
Description: SANGER: Inhibition of human EFM-19 cell growth in a cell viability assay.

[17] = test system: MKN-1; format: functional, cell-based; settings: Homo sapiens;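 further: growth inhibition of human MKN1 cells, read out by a cell viability measurement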
Description: SANGER: Inhibition of human MKN1 cell growth in a cell viability assay.

[18] = test system: HT55; format: functional, cell-based; settings: Homo sapiens;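 further: cell viability readout measuring growth inhibition of human HT55 cells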
Description: SANGER: Inhibition of human HT55 cell growth in a cell viability assay.

[19] = test system: LCLC-97TM1; format: functional, cell-based; settings: Homo sapiens;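 further: cell viability assay measuring growth inhibition of human LCLC-97TM1 cells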
Description: SANGER: Inhibition of human LCLC-97TM1 cell growth in a cell viability assay.

[20] = test system: WM-115; format: functional, cell-based; settings: Homo sapiens
Description: SANGER: Inhibition of human WM-115 cell growth in a cell viability assay.

[21] = test system: LoVo; format: functional, cell-based; settings: Homo sapiens;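 further: growth inhibition of human LoVo cells, read out with a cell viability assay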
Description: SANGER: Inhibition of human LoVo cell growth in a cell viability assay.

[22] = test system: HCC70; format: functional, cell-based; settings: Homo sapiens;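 further: cell viability assay measuring how strongly the compound suppresses proliferation of HCC70 cells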
Description: SANGER: Inhibition of human HCC70 cell growth in a cell viability assay.

[23] = test system: LK-2; format: functional, cell-based; settings: Homo sapiens;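 further: growth inhibition of LK-2 cells, read out with a viability assay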
Description: SANGER: Inhibition of human LK-2 cell growth in a cell viability assay.

[24] = test system: SW13; format: functional, cell-based; settings: Homo sapiens;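 further: IC50 is inhibition of SW13 cell growth, read out with a cell viability assay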
Description: SANGER: Inhibition of human SW13 cell growth in a cell viability assay.

[25] = test system: HuO9; format: functional, cell-based; settings: Homo sapiens;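 further: growth inhibition of HuO9 cells, read out with a cell viability assay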
Description: SANGER: Inhibition of human HuO9 cell growth in a cell viability assay.

[26] = test system: ASPC1; format: functional, cell-based; settings: Homo sapiens;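 further: growth inhibition of AsPC-1 cells, read out with a cell viability assay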
Description: SANGER: Inhibition of human AsPC-1 cell growth in a cell viability assay.

[27] = test system: HOP-92; format: functional, cell-based; settings: Homo sapiens;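 further: cell viability readout, with IC50 reflecting inhibition of HOP-92 cell growth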
Description: SANGER: Inhibition of human HOP-92 cell growth in a cell viability assay.

[28] = test system: SK-MEL3; format: functional, cell-based, SK-MEL-3; settings: Homo sapiens;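 further: growth inhibition of human SK-MEL-3 cells, read out with a cell viability assay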
Description: SANGER: Inhibition of human SK-MEL-3 cell growth in a cell viability assay.

[29] = test system: 769-P; format: functional, cell-based; settings: Homo sapiens
Description: SANGER: Inhibition of human 769-P cell growth in a cell viability assay.

[30] = test system: MKN-7; format: functional, cell-based; settings: Homo sapiens;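 further: growth inhibition of MKN-7 cells, read out with a cell viability assay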
Description: SANGER: Inhibition of human MKN7 cell growth in a cell viability assay.

[31] = test system: VM-CUB-1; format: functional, cell-based; settings: Homo sapiens;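 further: cell viability assay measuring growth inhibition of the human VM-CUB-1 cell line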
Description: SANGER: Inhibition of human VM-CUB-1 cell growth in a cell viability assay.

[32] = test system: KOSC-2; format: functional, cell-based; settings: Homo sapiens;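 further: growth inhibition of KOSC-2 cells, read out by a cell viability assay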
Description: SANGER: Inhibition of human KOSC-2 cell growth in a cell viability assay.

[33] = test system: HuP-T4; format: functional, cell-based; settings: Homo sapiens;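 further: cell viability assay measuring how much HuP-T4 cell growth is inhibited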
Description: SANGER: Inhibition of human HuP-T4 cell growth in a cell viability assay.

[34] = test system: SK-MEL-30; format: functional, cell-based; settings: Homo sapiens;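 further: growth inhibition of SK-MEL-30 cells, determined with a cell viability assay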
Description: SANGER: Inhibition of human SK-MEL-30 cell growth in a cell viability assay.

[35] = test system: DK-MG; format: functional, cell-based; settings: Homo sapiens;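 further: growth inhibition of DK-MG cells, read out with a cell viability assay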
Description: SANGER: Inhibition of human DK-MG cell growth in a cell viability assay.

[36] = test system: A-431; format: functional, cell-based; settings: Homo sapiens;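 further: growth inhibition of A-431 cells, determined with a cell viability read-out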
Description: SANGER: Inhibition of human A431 cell growth in a cell viability assay.

[37] = test system: CAL-39; format: functional, cell-based; settings: Homo sapiens;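 further: cell viability assay measuring growth inhibition of CAL-39 cells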
Description: SANGER: Inhibition of human CAL-39 cell growth in a cell viability assay.

[38] = test system: HCC1937; format: functional, cell-based; settings: Homo sapiens;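 further: growth inhibition measured with a cell viability read-out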
Description: SANGER: Inhibition of human HCC1937 cell growth in a cell viability assay.

[39] = test system: RMG-I; format: functional, cell-based; settings: Homo sapiens;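 further: growth inhibition of human RMG-I cells, read out with a cell viability assay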
Description: SANGER: Inhibition of human RMG-I cell growth in a cell viability assay.

[40] = test system: SW626; format: functional, cell-based; settings: Homo sapiens;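 further: growth inhibition of SW626 cells, measured with a cell viability assay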
Description: SANGER: Inhibition of human SW626 cell growth in a cell viability assay.

[41] = test system: OAW-42; format: functional, cell-based; settings: Homo sapiens;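 further: growth inhibition of OAW-42 cells, read out with a cell viability assay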
Description: SANGER: Inhibition of human OAW-42 cell growth in a cell viability assay.

O=C1NC(=O)c2c1c(-c1ccccc1Cl)cc1[nH]c3ccc(O)cc3c21
IC50 [1]: > 2 µM
IC50 [2]: > 2 µM
IC50 [3]: > 2 µM
IC50 [4]: > 2 µM
IC50 [5]: > 2 µM
IC50 [6]: 0.995 µM
IC50 [7]: > 2 µM
IC50 [8]: > 2 µM
IC50 [9]: > 2 µM
IC50 [10]: > 2 µM
IC50 [11]: > 2 µM
IC50 [12]: 1.52 µM
IC50 [13]: > 2 µM
IC50 [14]: > 2 µM
IC50 [15]: > 2 µM
IC50 [16]: > 2 µM
IC50 [17]: > 2 µM
IC50 [18]: > 2 µM
IC50 [19]: > 2 µM
IC50 [20]: > 2 µM
IC50 [21]: > 2 µM
IC50 [22]: > 2 µM
IC50 [23]: > 2 µM
IC50 [24]: > 2 µM
IC50 [25]: 1.96 µM
IC50 [26]: > 2 µM
IC50 [27]: 1 µM
IC50 [28]: 1.31 µM
IC50 [29]: 1.02 µM
IC50 [30]: > 2 µM
IC50 [31]: > 2 µM
IC50 [32]: > 2 µM
IC50 [33]: > 2 µM
IC50 [34]: > 2 µM
IC50 [35]: > 2 µM
IC50 [36]: > 2 µM
IC50 [37]: > 2 µM
IC50 [38]: > 2 µM

O=C(NCCCNc1nc(Nc2cccc(NC(=O)N3CCCC3)c2)ncc1I)c1cccs1 [BX-795]
IC50 [1]: 4.96 µM
IC50 [2]: > 5 µM
IC50 [3]: 4.07 µM
IC50 [4]: > 5 µM
IC50 [5]: 1.06 µM
IC50 [6]: > 5 µM
IC50 [7]: 3.89 µM
IC50 [8]: > 5 µM
IC50 [9]: > 5 µM
IC50 [10]: > 5 µM
IC50 [11]: > 5 µM
IC50 [12]: 1.31 µM
IC50 [13]: > 5 µM
IC50 [39]: > 5 µM
IC50 [14]: > 5 µM
IC50 [15]: > 5 µM
IC50 [16]: > 5 µM
IC50 [17]: > 5 µM
IC50 [18]: > 5 µM
IC50 [19]: > 5 µM
IC50 [20]: 3.88 µM
IC50 [21]: > 5 µM
IC50 [22]: > 5 µM
IC50 [23]: > 5 µM
IC50 [24]: > 5 µM
IC50 [25]: 2.56 µM
IC50 [26]: > 5 µM
IC50 [27]: 1.27 µM
IC50 [28]: > 5 µM
IC50 [29]: > 5 µM
IC50 [30]: > 5 µM
IC50 [31]: 2.04 µM
IC50 [32]: 3.07 µM
IC50 [40]: > 5 µM
IC50 [33]: > 5 µM
IC50 [34]: > 5 µM
IC50 [35]: 1.57 µM
IC50 [41]: 3.66 µM
IC50 [36]: 2.76 µM
IC50 [37]: 4.31 µM
IC50 [38]: > 5 µM

CC1(C)CCC(c2ccc(Cl)cc2)=C(CN2CCN(c3ccc(C(=O)NS(=O)(=O)c4ccc(N[C@H](CCN5CCOCC5)CSc5ccccc5)c(S(=O)(=O)C(F)(F)F)c4)cc3)CC2)C1 [NAVITOCLAX]
IC50 [1]: > 2 µM
IC50 [2]: > 2 µM
IC50 [3]: > 2 µM
IC50 [4]: > 2 µM
IC50 [5]: 1.14 µM
IC50 [6]: > 2 µM
IC50 [7]: 1.16 µM
IC50 [8]: > 2 µM
IC50 [9]: > 2 µM
IC50 [10]: > 2 µM
IC50 [11]: > 2 µM
IC50 [12]: > 2 µM
IC50 [13]: 1.06 µM
IC50 [39]: 0.495 µM
IC50 [14]: > 2 µM
IC50 [15]: > 2 µM
IC50 [16]: > 2 µM
IC50 [17]: > 2 µM
IC50 [18]: > 2 µM
IC50 [19]: > 2 µM
IC50 [20]: 0.277 µM
IC50 [21]: > 2 µM
IC50 [22]: > 2 µM
IC50 [23]: > 2 µM
IC50 [24]: > 2 µM
IC50 [25]: 0.267 µM
IC50 [26]: > 2 µM
IC50 [27]: > 2 µM
IC50 [28]: > 2 µM
IC50 [29]: > 2 µM
IC50 [30]: > 2 µM
IC50 [31]: > 2 µM
IC50 [32]: > 2 µM
IC50 [40]: > 2 µM
IC50 [33]: > 2 µM
IC50 [34]: > 2 µM
IC50 [35]: > 2 µM
IC50 [41]: 0.961 µM
IC50 [36]: > 2 µM
IC50 [37]: > 2 µM
IC50 [38]: > 2 µM

CS(=O)(=O)N1CCN(Cc2cc3nc(-c4cccc5[nH]ncc45)nc(N4CCOCC4)c3s2)CC1 [PICTILISIB]
IC50 [1]: > 4 µM
IC50 [2]: > 4 µM
IC50 [3]: > 4 µM
IC50 [4]: > 4 µM
IC50 [5]: > 4 µM
IC50 [6]: 3.29 µM
IC50 [7]: > 4 µM
IC50 [8]: > 4 µM
IC50 [9]: > 4 µM
IC50 [10]: 0.516 µM
IC50 [11]: > 4 µM
IC50 [12]: > 4 µM
IC50 [13]: > 4 µM
IC50 [39]: > 4 µM
IC50 [14]: > 4 µM
IC50 [15]: 3.75 µM
IC50 [16]: 1.62 µM
IC50 [17]: > 4 µM
IC50 [18]: > 4 µM
IC50 [19]: 2.69 µM
IC50 [20]: 1.07 µM
IC50 [21]: 0.778 µM
IC50 [22]: 2.87 µM
IC50 [23]: > 4 µM
IC50 [24]: > 4 µM
IC50 [25]: 0.206 µM
IC50 [26]: > 4 µM
IC50 [27]: 2.75 µM
IC50 [28]: > 4 µM
IC50 [29]: 3.83 µM
IC50 [30]: 2.71 µM
IC50 [31]: > 4 µM
IC50 [32]: > 4 µM
IC50 [40]: > 4 µM
IC50 [33]: 1.61 µM
IC50 [34]: > 4 µM
IC50 [35]: > 4 µM
IC50 [41]: 0.872 µM
IC50 [36]: 2.27 µM
IC50 [37]: 2.03 µM
IC50 [38]: > 4 µM

CN(C)CCOc1ccc(-c2nc(-c3ccncc3)c(-c3ccc4c(c3)CC/C4=N\O)[nH]2)cc1 [SB590885]
IC50 [1]: > 5 µM
IC50 [2]: > 5 µM
IC50 [3]: > 5 µM
IC50 [5]: > 5 µM
IC50 [6]: > 5 µM
IC50 [7]: > 5 µM
IC50 [8]: > 5 µM
IC50 [9]: > 5 µM
IC50 [10]: > 5 µM
IC50 [11]: > 5 µM
IC50 [12]: 0.282 µM
IC50 [13]: > 5 µM
IC50 [39]: > 5 µM
IC50 [14]: > 5 µM
IC50 [15]: > 5 µM
IC50 [16]: > 5 µM
IC50 [18]: > 5 µM
IC50 [19]: > 5 µM
IC50 [20]: 0.85 µM
IC50 [21]: > 5 µM
IC50 [22]: > 5 µM
IC50 [23]: > 5 µM
IC50 [25]: > 5 µM
IC50 [26]: > 5 µM
IC50 [27]: 1.11 µM
IC50 [28]: 0.818 µM
IC50 [29]: > 5 µM
IC50 [30]: > 5 µM
IC50 [31]: > 5 µM
IC50 [32]: > 5 µM
IC50 [40]: > 5 µM
IC50 [33]: > 5 µM
IC50 [34]: 1.55 µM
IC50 [35]: > 5 µM
IC50 [41]: > 5 µM
IC50 [36]: > 5 µM
IC50 [37]: > 5 µM
IC50 [38]: > 5 µM

From ChEMBL document CHEMBL1201861, “Genomics of Drug Sensitity in Cancer screening data, Wellcome Trust Sanger Institute”
